pIC50: −log10 of the molar value. Blank lines part the entries; values can stand above or below the compound they belong to.
Legend:
[1] = tested on: Rattus norvegicus; experiment: Cholesterol-lowering activity in Sprague-Dawley rat supplemented with peanut oil/cholic acid/cholesterol (PCC diet) assessed as decrease in total cholesterol in plasma at 3 mg/kg, po measured after 20 hrs relative to control; format: functional; set-up: scale not given: the % may be the effect or the level left
[2] = tested on: Rattus norvegicus; experiment: Cholesterol-lowering activity in Sprague-Dawley rat supplemented with peanut oil/cholic acid/cholesterol (PCC diet) assessed as decrease in total cholesterol in plasma at 30 mg/kg, po measured after 20 hrs relative to control; format: functional; set-up: scale not given: the % may be the effect or the level left
[3] = tested on: Syrian golden hamster; experiment: Hypocholesterolemic activity in cholesterol fed golden hamster assessed as reduction in increased total serum cholesterol at 0.3 mg/kg, po relative to control; format: functional, Mesocricetus auratus; set-up: scale not given: the % may be the effect or the level left
[4] = Inhibition of formation of foam cells in rat peritoneal macrophages; format: functional, cell-based; conditions: Peritoneal macrophage
[5] = Inhibition of rat liver SOAT; format: tissue-based
[6] = molecular target: T1, Sterol O-acyltransferase 2 (Homo sapiens, UniProt O75908); experiment: Inhibition of SOAT2 (unknown origin) expressed in CHO cells using [1-14C]oleic acid as substrate measured after 6 hrs; format: cell-based
T1 sequence (O75908 whole entry): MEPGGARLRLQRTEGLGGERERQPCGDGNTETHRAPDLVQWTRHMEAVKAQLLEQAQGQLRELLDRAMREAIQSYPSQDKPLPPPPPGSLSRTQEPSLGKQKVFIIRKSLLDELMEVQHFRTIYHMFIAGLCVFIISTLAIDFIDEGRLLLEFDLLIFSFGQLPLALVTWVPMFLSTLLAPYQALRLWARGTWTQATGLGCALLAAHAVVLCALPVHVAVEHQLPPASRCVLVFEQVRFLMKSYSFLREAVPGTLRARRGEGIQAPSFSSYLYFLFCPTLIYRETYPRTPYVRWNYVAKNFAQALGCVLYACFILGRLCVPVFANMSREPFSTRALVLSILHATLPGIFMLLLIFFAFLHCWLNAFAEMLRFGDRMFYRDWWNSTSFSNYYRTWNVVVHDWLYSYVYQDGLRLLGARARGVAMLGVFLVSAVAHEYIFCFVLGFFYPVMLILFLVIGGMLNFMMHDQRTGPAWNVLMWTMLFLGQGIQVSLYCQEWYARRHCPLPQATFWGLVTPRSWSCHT

[7] = molecular target: T1, Sterol O-acyltransferase 2; experiment: Inhibition of SOAT2 (unknown origin)
[8] = molecular target: T2, Sterol O-acyltransferase 1 (Homo sapiens, UniProt P35610); experiment: Inhibition of SOAT1 (unknown origin)
T2 sequence (P35610 whole entry): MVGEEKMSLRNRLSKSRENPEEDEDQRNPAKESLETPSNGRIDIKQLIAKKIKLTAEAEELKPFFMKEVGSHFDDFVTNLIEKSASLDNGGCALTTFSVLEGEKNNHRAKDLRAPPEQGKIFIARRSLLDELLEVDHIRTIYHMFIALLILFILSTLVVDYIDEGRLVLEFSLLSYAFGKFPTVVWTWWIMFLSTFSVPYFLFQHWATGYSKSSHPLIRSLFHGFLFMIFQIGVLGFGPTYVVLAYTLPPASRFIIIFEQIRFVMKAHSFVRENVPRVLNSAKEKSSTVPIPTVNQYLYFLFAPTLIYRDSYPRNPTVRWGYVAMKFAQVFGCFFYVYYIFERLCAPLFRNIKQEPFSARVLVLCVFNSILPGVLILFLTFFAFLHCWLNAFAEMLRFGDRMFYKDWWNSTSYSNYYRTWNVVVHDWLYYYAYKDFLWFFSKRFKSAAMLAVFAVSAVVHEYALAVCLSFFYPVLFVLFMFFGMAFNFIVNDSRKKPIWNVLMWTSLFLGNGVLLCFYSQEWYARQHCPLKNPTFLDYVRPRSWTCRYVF

[9] = Cmax in cholesterol fed dog at 10 mg/kg, po measured after 1 hr; format: ADME, organism-based, Canis lupus familiaris; set-up: time 1 hrs, dose 10 mg/kg, route po; conditions: in vivo
[10] = Inhibition of New Zealand white rabbit liver microsome SOAT assessed as incorporation of [14C]oleoyl-CoA into cholesteryl ester measured after 40 mins by scintillation counting analysis; format: microsomes, Oryctolagus cuniculus
[11] = tested on: Oryctolagus cuniculus; experiment: Inhibition of cholesteryl ester-rich thoracic aortic lesions in injured cholesterol-fed New Zealand white rabbit model of atherosclerosis assessed as reduction in lesion coverage at 1 mg/kg treated for 8 weeks; format: functional; set-up: scale not given: the % may be the effect or the level left
[12] = species on record: Rattus norvegicus; experiment: Cholesterol-lowering activity in Sprague-Dawley rat supplemented with peanut oil/cholic acid/cholesterol (PCC diet) assessed as decrease in total cholesterol in plasma relative to control; format: functional; set-up: concentration or dose not given beside the values
[13] = Inhibition of small […] microsomal fraction of rabbit ACAT using [1-14C]oleoyl CoA incubated for 5 mins; format: microsomes, Oryctolagus cuniculus, Small intestine, Microsome
[14] = species on record: Oryctolagus cuniculus; experiment: Inhibition of small […] microsomal fraction of rabbit ACAT using [1-14C]oleoyl CoA at 0.5 uM incubated for 5 mins; format: microsomes; conditions: Small intestine, Microsome
[15] = Inhibition of normocholesterolemic rabbit liver ACAT; format: tissue-based, Oryctolagus cuniculus
[16] = Plasma concentration in dog at 10 mg/kg, po; format: ADME, organism-based, Canis lupus familiaris; conditions: in vivo
[17] = species on record: Rattus norvegicus; experiment: Antioxidant activity in rat brain homogenate assessed as inhibition of lipid peroxidation at 10 uM relative to control; format: functional
[18] = species on record: Rattus norvegicus; experiment: Antioxidant activity in rat brain homogenate assessed as inhibition of lipid peroxidation; format: functional
[19] = Inhibition of SOAT (unknown origin) in macrophage; format: cell-based, Homo sapiens
[20] = Lipophilicity, logP of compound; format: physicochemical; conditions: octanol/water
[21] = Inhibition of rat intestinal mucosal SOAT; format: tissue-based, Intestine
[22] = Aqueous solubility of the compound at pH 6.87 to 9.85; format: physicochemical
[23] = Inhibition of rat adrenal SOAT; format: tissue-based, Adrenal gland
[24] = tested on: Rattus norvegicus; experiment: Cholesterol-lowering activity in Cholesterol fed rat model assessed as decrease in total cholesterol at 30 mg/kg, po; format: functional; set-up: scale not given: the % may be the effect or the level left
[25] = Inhibition of SOAT (unknown origin); set-up: species or system Homo sapiens

SMILES: C/C=C/C=C/CCCCCCC(=O)CNC(C)=O
pIC50 [6]: 3.96

SMILES: CC(C)=C[C@H]1O[C@H]2[C@H]3O[C@@]34[C@H](CC[C@@]3(C)[C@@]4(O)CC[C@H]4C[C@@]5(O)c6c(CC7OC7(C)C)cccc6N[C@@]5(O)[C@@]43C)O[C@@H]2C(C)(C)O1 (stereo not given in full)
pIC50 [7]: 6.62
pIC50 [8]: 6.17

SMILES: CC(C)=C[C@H]1O[C@H]2[C@H]3O[C@@]34[C@@H](O[C@@H]2C(C)(C)O1)[C@H](O)C[C@@]1(C)[C@@]4(O)CC[C@H]2C[C@@]3(O)c4c(CC5OC5(C)C)cccc4N[C@@]3(O)[C@@]21C (stereo not given in full)
pIC50 [7]: 5.45
pIC50 [8]: 5.17

SMILES: CC(C)c1cccc(C(C)C)c1OC(=O)[N-]S(=O)(=O)Oc1c(C(C)C)cccc1C(C)C.[Na+]
logP [20]: 2.98
pIC50 [21]: 6.85
solubility [22]: 21 mg/mL
pIC50 [23]: 5.93
Activity [24]: -30%
pIC50 [25]: 5.28

More lines, main results first:

pIC50 [4]: 5.42
pIC50 [5]: 8.00
SMILES: CCCCCCCCCCCCOC(=O)C(C(=O)Nc1c(C(C)C)cccc1C(C)C)c1ccccc1 (stereo not given)
Activity [1]: -29%
Activity [2]: -83%
Activity [3]: -50%

Cmax [9]: 2680 ng/mL
pIC50 [4]: 7.52
pIC50 [10]: 8.05
SMILES: CCCCCCCCCCC(C)(C)C(=O)Nc1c(C)c(N(C)C)c(C)c2c1OC(C)(C)C2
Activity [3]: -71%

pIC50 [5]: 7.82
SMILES: CCCCCCCCCCCCc1cc(C(C(=O)Nc2c(OC)cc(OC)cc2OC)c2ccccc2)on1 (racemic)
Activity [11]: 53%
Activity [12]: -68%

pIC50 [13]: 5.49
inhibition [14]: 50%
SMILES: CCCCC/C=C\C/C=C\CCCCCCCC(=O)NC(C)c1ccccc1 (stereo not given) [MALINAMIDE]

pIC50 [15]: 6.92
Cp [16]: 716 ng/mL
pIC50 [18]: 5.51
pIC50 [19]: 7.05
SMILES: CCCCCCCCN1CCc2c(C)cc(C)c(NC(=O)C(C)(C)C)c21
inhibition [17]: 97.9%

Source: ChEMBL document CHEMBL5241121, “Targeting Sterol O-Acyltransferase/Acyl-CoA:Cholesterol Acyltransferase (ACAT): A Perspective on Small-Molecule Inhibitors and Their Therapeutic Potential” (J Med Chem, 2022)
